The record followed here is PMC11435065, “Inhibition of P-Glycoprotein Asymmetrically Alters the In Vivo Exposure Profile of SGC003F: A Novel Guanylate Cyclase Stimulator” (Pharmaceuticals, 2024).

Holding throughout (assay type): in vitro ADME
A short description of series [1]: Bidirectional transport across Caco-2 monolayer cells. Particulars: human, Caco-2 cells, read-out: ER value (efflux ratio). As for the experimental part: (§1) LLC-PK1-MDR1, LLC-PK1-MOCK, and Caco-2 cells were seeded in 24-well Transwell cell plates at optimized densities. The medium was changed every other day for the LLC-PK1 cells and every day for the Caco-2 cells. The LLC-PK1 cells were cultured continuously for 4–7 days, while the Caco-2 cells were cultured continuously for 28–35 days in preparation for transport experiments. Prior to the experiment, TEER (transepithelial electrical resistance) values were measured using a cell resistance meter. For electrical measurements, two electrodes were used, with one electrode placed in the upper compartment and the other in the lower compartment and the electrodes were separated by the cellular monolayer. The measurement procedure included measuring the blank resistance (Rblank) of the semipermeable membrane only (without cells) and measuring the resistance across the cell layer on the semipermeable membrane (Rtotal). TEER values were achieved by calculating as TEER = (Rtotal − Rblank) × Marea in the unit of Ω·cm^2. […]
(§2) The apparent permeability rate value (Papp) of the monolayer cells was calculated according to Equation (5) Papp = (dQ/dt)/(A × C0)(5) where dQ/dt is the transport rate (µmol·s^−1); A is the insert surface area (0.33 cm^2); C0 is the initial concentration of the compound (µM).
(§3) Efflux rate (ER) was calculated according to Equation (6):ER = Papp B-A/PappA-B(6)
(Caco-2 monolayers are a common model of the intestinal barrier.)

Series [2] in a line: In vitro metabolic stability in human liver microsomes. Particulars: 1 µM, up to 60 min, NADPH or UDPGA. As for the experimental part:
In vitro incubation dependent on NADPH: SGC003F was added into rat and human liver microsomes diluted in PBS (100 mM, pH 7.3). NADPH was introduced into the system. The NADPH had been pre-equilibrated under the same conditions for 5 min to initiate the enzymatic reaction. The incubation mixture was meticulously prepared to achieve the following final concentrations: 1 µM for SGC003F, 0.5 mg/mL for the liver microsomal protein, and 1 mM for NADPH.
In vitro incubation dependent on UDPGA: rat and human liver microsomes diluted in PBS (100 mM, pH 7.3) were mixed with alamethicin and then placed on ice for 15 min before the addition of the working solution of SGC003F. After preincubation in a water bath at 37 °C for 5 min, UDPGA, which had been preincubated for 5 min was added to initiate the reaction. The final concentrations in the incubation system were as follows: 1 μM for SGC003F, 0.5 mg/mL for liver microsomal protein concentration, 5 mM for UDPGA, and 25 μg/mL for alamethicin.
Positive probe substrate assays were utilized to ensure normal activity of the incubation system. […] Finally, 60 μL supernatant was taken and diluted with 60 μL of 50% acetonitrile before being analyzed by LC-MS/MS.
Background: Microsomes from liver hold many membrane-bound enzymes, among them those of drug oxidation.

Another series addresses T1, P-gp (human MDR1) (Homo sapiens, UniProt P08183).
T1 construct: expressed in transfected cells; host or cells: LLC-PK1 cells stably expressing human MDR1 (gift of Professor Qingcheng Mao, University of Washington)
As to the kind of experiment: Bidirectional transport across LLC-PK1-MDR1 monolayer cells with or without tariquidar. To be noted: for efflux ratio at 2 h, 2 µM: human, read-out: ER value (efflux ratio).
From the text: Cell lines: LLC-PK1 cells with stable-expressing human MDR1 and mock-transfected with empty vector (LLC-PK1-MOCK) were gifted by the lab of Professor Qingcheng Mao (University of Washington, Seattle, WA, USA). The culture medium of the LLC-PK1-MOCK and LLC-PK1-MDR1 cells was 1640 medium containing 10% FBS and 100 U/mL PS. The Caco-2 cells were purchased from ADCC. The Caco-2 cell culture medium was DMEM high-glucose medium (containing 10% FBS, 1% non-essential amino acid solution, 100 U/mL PS). Both cell lines were cultured at 37 °C in a cell incubator containing 5% CO2.
as §1, with “Ω·cm^2. The monolayer integrity was guaranteed by determining the TEER before and after the bidirectional transport experiments.” for “Ω·cm^2.”
as §2, §3

Read-outs that look alike come from different tables or passages of the source.

T1 sequence (P08183 whole entry): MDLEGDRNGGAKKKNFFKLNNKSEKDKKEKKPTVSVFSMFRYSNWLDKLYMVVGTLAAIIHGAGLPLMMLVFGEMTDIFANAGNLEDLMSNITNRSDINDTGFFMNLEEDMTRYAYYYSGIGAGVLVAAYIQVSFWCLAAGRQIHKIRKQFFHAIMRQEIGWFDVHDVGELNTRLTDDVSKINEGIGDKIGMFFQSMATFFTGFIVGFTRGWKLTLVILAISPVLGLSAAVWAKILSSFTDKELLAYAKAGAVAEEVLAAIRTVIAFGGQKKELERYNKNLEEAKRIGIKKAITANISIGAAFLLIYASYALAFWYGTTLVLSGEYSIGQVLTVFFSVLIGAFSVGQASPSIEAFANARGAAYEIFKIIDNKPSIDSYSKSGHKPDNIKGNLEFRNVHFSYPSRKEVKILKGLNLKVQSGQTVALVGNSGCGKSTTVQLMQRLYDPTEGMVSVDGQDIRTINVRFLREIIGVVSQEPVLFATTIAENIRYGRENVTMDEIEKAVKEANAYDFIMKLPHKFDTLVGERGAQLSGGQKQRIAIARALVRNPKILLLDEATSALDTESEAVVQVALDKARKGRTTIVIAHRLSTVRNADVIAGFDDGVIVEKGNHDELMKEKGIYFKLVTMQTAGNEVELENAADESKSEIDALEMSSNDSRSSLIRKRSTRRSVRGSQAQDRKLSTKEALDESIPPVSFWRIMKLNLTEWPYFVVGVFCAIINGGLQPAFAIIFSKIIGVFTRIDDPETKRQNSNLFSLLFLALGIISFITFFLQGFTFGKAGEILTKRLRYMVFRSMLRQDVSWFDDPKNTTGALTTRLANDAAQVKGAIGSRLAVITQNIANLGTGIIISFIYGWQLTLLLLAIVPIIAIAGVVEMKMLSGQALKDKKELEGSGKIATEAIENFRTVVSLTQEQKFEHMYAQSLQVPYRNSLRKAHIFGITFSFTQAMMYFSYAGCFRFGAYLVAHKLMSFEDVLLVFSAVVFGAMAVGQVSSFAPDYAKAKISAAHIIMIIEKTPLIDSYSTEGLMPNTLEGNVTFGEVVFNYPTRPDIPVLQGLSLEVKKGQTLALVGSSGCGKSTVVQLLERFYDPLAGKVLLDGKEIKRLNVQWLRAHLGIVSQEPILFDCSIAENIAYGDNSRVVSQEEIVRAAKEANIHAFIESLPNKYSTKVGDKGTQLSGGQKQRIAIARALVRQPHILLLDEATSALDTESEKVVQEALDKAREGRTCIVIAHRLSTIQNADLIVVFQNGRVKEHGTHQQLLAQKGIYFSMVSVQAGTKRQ

In the case of `COC(=O)Nc1c(N)nc(-c2nn(Cc3sccc3F)c3ncc(F)cc23)nc1N` [SGC003F], the efflux ratio at 2 h, 2 µM was 7.2 in series [1]; 6.71 at P-gp (human MDR1) (LLC-PK1, LLC-PK1-MDR1 cells, without tariquidar); 1.28 on P-gp (human MDR1) (LLC-PK1, with tariquidar 5 µM, LLC-PK1-MDR1 cells, with tariquidar 5 µM). For the same compound, in series [2], the “Metabolic stability (percentage of drug remaining over time)” value was “no significant metabolic elimination”. Further, at P-gp (human MDR1) (LLC-PK1-MDR1 vs LLC-PK1-MOCK, with/without tariquidar), the P-gp substrate assessment entry is reported as “substrate for P-gp”.
